According to patent EP0385712B1, “A peptide for use in the manufacture of a composition for prevention or treatment of a condition susceptible to treatment with a platelet aggregation inhibition agent” (ASAHI KASEI KOGYO KABUSHIKI KAISHA, priority 1989, dated 1994):
Positions of bridges follow the written chain, without caps; N, C: chain ends. Residues, ends and D or L forms follow the SMILES beside them.

The molecules below were run on rat, Wister strain (assay: Acute toxicity in rat, intravenous). Conditions: body weight 80 - 90 g, 80 µg/kg intravenously in the tail, solution in 0.1 M aqueous sodium acetate containing 0.1 % bovine serum albumin.
Assay type: in vivo
Procedure: A solution of each of the following compounds in 0.1 M aqueous sodium acetate containing 0.1 % bovine serum albumin is administered into a rat, Wister strain, body weight 80 - 90 g, 80 µg/kg, intraveneously in the tail.

Molecule | Acute toxicity (deaths)
desalanyl-deamino- [Glu¹⁴ ] -h -α-CGRP | No deaths were observed
r - β- CGRP | No deaths were observed
r - α - CGRP | No deaths were observed
desalanyl-deamino- [Asp¹⁴ ] -h -α-CGRP | No deaths were observed
desalanyl- [Asu^2,7] -h -β-CGRP | No deaths were observed
CC(C)C[C@H](NC(=O)[C@H](CCCNC(=N)N)NC(=O)[C@H](Cc1c[nH]cn1)NC(=O)[C@@H](NC(=O)[C@@H](NC(=O)[C@@H]1CSSC[C@H](NC(=O)[C@H](C)N)C(=O)N[C@@H](CC(N)=O)C(=O)N[C@@H]([C@@H](C)O)C(=O)N[C@@H](C)C(=O)N[C@@H]([C@@H](C)O)C(=O)N1)C(C)C)[C@@H](C)O)C(=O)N[C@@H](C)C(=O)N[C@@H](CCC(=O)O)C(=O)N[C@@H](Cc1ccccc1)C(=O)N[C@@H](CC(C)C)C(=O)N[C@@H](CO)C(=O)N[C@@H](CCCNC(=N)N)C(=O)N[C@@H](CO)C(=O)NCC(=O)NCC(=O)N[C@H](C(=O)N[C@H](C(=O)N[C@@H](CCCCN)C(=O)N[C@@H](CC(N)=O)C(=O)N[C@@H](CC(N)=O)C(=O)N[C@@H](Cc1ccccc1)C(=O)N[C@H](C(=O)N1CCC[C@H]1C(=O)N[C@H](C(=O)N[C@@H](CC(N)=O)C(=O)N[C@H](C(=O)NCC(=O)N[C@@H](CO)C(=O)N[C@@H](CCCCN)C(=O)N[C@@H](C)C(=O)N[C@@H](Cc1ccccc1)C(N)=O)C(C)C)[C@@H](C)O)C(C)C)C(C)C)C(C)C [[Asn³, Glu¹⁴, Phe¹⁵] -h -α-CGRP] (H-ACNTATCVTHRLAEFLSRSGGVVKNNFVPTNVGSKAF-NH2; disulfide 2-7) | No deaths were observed
desalanyl-deamino-h-α-CGRP | No deaths were observed
desalanyl- [Asu^2,7] -h - α-CGRP | No deaths were observed
CC(C)C[C@H](NC(=O)[C@H](CCCNC(=N)N)NC(=O)[C@H](Cc1c[nH]cn1)NC(=O)[C@@H](NC(=O)[C@@H](NC(=O)[C@@H]1CSSC[C@H](NC(=O)[C@H](C)N)C(=O)N[C@@H](CC(=O)O)C(=O)N[C@@H]([C@@H](C)O)C(=O)N[C@@H](C)C(=O)N[C@@H]([C@@H](C)O)C(=O)N1)C(C)C)[C@@H](C)O)C(=O)N[C@@H](C)C(=O)N[C@@H](CC(=O)O)C(=O)N[C@@H](CC(C)C)C(=O)N[C@@H](CC(C)C)C(=O)N[C@@H](CO)C(=O)N[C@@H](CCCNC(=N)N)C(=O)N[C@@H](CO)C(=O)NCC(=O)NCC(=O)N[C@H](C(=O)N[C@H](C(=O)N[C@@H](CCCCN)C(=O)N[C@@H](CC(N)=O)C(=O)N[C@@H](CC(N)=O)C(=O)N[C@@H](Cc1ccccc1)C(=O)N[C@H](C(=O)N1CCC[C@H]1C(=O)N[C@H](C(=O)N[C@@H](CC(N)=O)C(=O)N[C@H](C(=O)NCC(=O)N[C@@H](CO)C(=O)N[C@@H](CCCCN)C(=O)N[C@@H](C)C(=O)N[C@@H](Cc1ccccc1)C(N)=O)C(C)C)[C@@H](C)O)C(C)C)C(C)C)C(C)C [[Asp¹⁴ ] -h -α-CGRP] (H-ACDTATCVTHRLADLLSRSGGVVKNNFVPTNVGSKAF-NH2; disulfide 2-7) | No deaths were observed
desalanyl- [Asp^3, Asu^2,⁷)-c-CGRP | No deaths were observed
c - CGRP | No deaths were observed
CC(C)C[C@H](NC(=O)[C@H](CCCNC(=N)N)NC(=O)[C@H](Cc1c[nH]cn1)NC(=O)[C@@H](NC(=O)[C@@H](NC(=O)[C@@H]1CSSC[C@H](NC(=O)[C@H](C)N)C(=O)N[C@@H](CC(N)=O)C(=O)N[C@@H]([C@@H](C)O)C(=O)N[C@@H](C)C(=O)N[C@@H]([C@@H](C)O)C(=O)N1)C(C)C)[C@@H](C)O)C(=O)N[C@@H](C)C(=O)N[C@@H](CC(=O)O)C(=O)N[C@@H](Cc1ccccc1)C(=O)N[C@@H](CC(C)C)C(=O)N[C@@H](CO)C(=O)N[C@@H](CCCNC(=N)N)C(=O)N[C@@H](CO)C(=O)NCC(=O)NCC(=O)N[C@H](C(=O)N[C@H](C(=O)N[C@@H](CCCCN)C(=O)N[C@@H](CC(N)=O)C(=O)N[C@@H](CC(N)=O)C(=O)N[C@@H](Cc1ccccc1)C(=O)N[C@H](C(=O)N1CCC[C@H]1C(=O)N[C@H](C(=O)N[C@@H](CC(N)=O)C(=O)N[C@H](C(=O)NCC(=O)N[C@@H](CO)C(=O)N[C@@H](CCCCN)C(=O)N[C@@H](C)C(=O)N[C@@H](Cc1ccccc1)C(N)=O)C(C)C)[C@@H](C)O)C(C)C)C(C)C)C(C)C [[Asn³, Asp¹⁴, Phe¹⁵] -h -α-CGRP] (H-ACNTATCVTHRLADFLSRSGGVVKNNFVPTNVGSKAF-NH2; disulfide 2-7) | No deaths were observed
CC(C)C[C@H](NC(=O)[C@H](CCCNC(=N)N)NC(=O)[C@H](Cc1c[nH]cn1)NC(=O)[C@@H](NC(=O)[C@@H](NC(=O)[C@@H]1CSSC[C@H](NC(=O)[C@H](C)N)C(=O)N[C@@H](CC(N)=O)C(=O)N[C@@H]([C@@H](C)O)C(=O)N[C@@H](C)C(=O)N[C@@H]([C@@H](C)O)C(=O)N1)C(C)C)[C@@H](C)O)C(=O)N[C@@H](C)C(=O)N[C@@H](CCC(=O)O)C(=O)N[C@@H](CC(C)C)C(=O)N[C@@H](CC(C)C)C(=O)N[C@@H](CO)C(=O)N[C@@H](CCCNC(=N)N)C(=O)N[C@@H](CO)C(=O)NCC(=O)NCC(=O)N[C@H](C(=O)NCC(=O)N[C@@H](CCCCN)C(=O)N[C@@H](CC(N)=O)C(=O)N[C@@H](CC(N)=O)C(=O)N[C@@H](Cc1ccccc1)C(=O)N[C@H](C(=O)N1CCC[C@H]1C(=O)N[C@H](C(=O)N[C@@H](CC(N)=O)C(=O)N[C@H](C(=O)NCC(=O)N[C@@H](CO)C(=O)N[C@@H](CCCCN)C(=O)N[C@@H](C)C(=O)N[C@@H](Cc1ccccc1)C(N)=O)C(C)C)[C@@H](C)O)C(C)C)C(C)C [[Asn³, Glu¹⁴, Gly²³] -h -α-CGRP] (H-ACNTATCVTHRLAELLSRSGGVGKNNFVPTNVGSKAF-NH2; disulfide 2-7) | No deaths were observed
p - CGRP | No deaths were observed
desalanyl-deamino-h-β-CGRP | No deaths were observed
CC(C)C[C@H](NC(=O)[C@H](CCCNC(=N)N)NC(=O)[C@H](Cc1c[nH]cn1)NC(=O)[C@@H](NC(=O)[C@@H](NC(=O)[C@@H]1CSSC[C@H](NC(=O)[C@H](C)N)C(=O)N[C@@H](CC(=O)O)C(=O)N[C@@H]([C@@H](C)O)C(=O)N[C@@H](C)C(=O)N[C@@H]([C@@H](C)O)C(=O)N1)C(C)C)[C@@H](C)O)C(=O)N[C@@H](C)C(=O)N[C@@H](CCC(=O)O)C(=O)N[C@@H](CC(C)C)C(=O)N[C@@H](CC(C)C)C(=O)N[C@@H](CO)C(=O)N[C@@H](CCCNC(=N)N)C(=O)N[C@@H](CO)C(=O)NCC(=O)NCC(=O)N[C@H](C(=O)N[C@H](C(=O)N[C@@H](CCCCN)C(=O)N[C@@H](CC(N)=O)C(=O)N[C@@H](CC(N)=O)C(=O)N[C@@H](Cc1ccccc1)C(=O)N[C@H](C(=O)N1CCC[C@H]1C(=O)N[C@H](C(=O)N[C@@H](CC(N)=O)C(=O)N[C@H](C(=O)NCC(=O)N[C@@H](CO)C(=O)N[C@@H](CCCCN)C(=O)N[C@@H](C)C(=O)N[C@@H](Cc1ccccc1)C(N)=O)C(C)C)[C@@H](C)O)C(C)C)C(C)C)C(C)C [[Glu¹⁴ ] -h -α-CGRP] (H-ACDTATCVTHRLAELLSRSGGVVKNNFVPTNVGSKAF-NH2; disulfide 2-7) | No deaths were observed
